Assay results reported in patent EP1153612A1, “ANTICANCER AGENT POTENTIATORS” (Tsuruo, Takashi, priority 1999, dated 2000).

Legend:
topoisomerase I = assay: Amount of expression of topoisomerase I in whole cell extract by western blotting; format: cell-based, human; conditions: ordinary and glucose starvation condition; 2.5, 5, and 10 µM; FIG. 17(a)
Method: The cell culture condition for both M phase-synchronized culture method and culture under the glucose starvation condition was as described in Example 1. M phase-synchronized cells were cultured in the culture medium, to which lactacystin of the final concentration 10 µM was added, or the culture medium, to which this was not added, as the proteasome inhibiting agent under the ordinary condition and the glucose starvation condition, respectively, for 13 hours. […] In order to examine sensitivity of cells against the topoisomerase I inhibiting agent, camptothecin (Yakult made), the drug was added to the culture medium to continue further culturing for 4 hours. Sensitivity of cells was measured by applying the colony formation method described in Example 1. On the other hand, the amount of expression of topoisomerase I that is the target molecule of camptothecin was measured by preparing the whole cell extract solution as described in Example 2 followed by the western blotting method. For reference, in measuring the amount of expression of topoisomerase I, regarding the proteasome inhibiting agents, clasto-lactacystin β lactone (Boston Biochem made), which is an activated form of lactacystin, was used in the final concentration of 2.5, 5, and 10 µM. Meanwhile, as the antibody against human topoisomerase I, a mouse monoclonal antibody established by Tsuruo et al. was used.

topoisomerase IIα = assay: Amount of expression of topoisomerase IIα in whole cell extract by western blotting; format: cell-based, human; conditions: glucose starvation condition; 2.5, 5, and 10 µM; FIG. 17(b)
Source text: Topoisomerase II inhibiting anticancer drug stabilizes a complex (cleavable complex) consisting of the DNA and topoisomerase IIα occurring in a catalytic reaction process of topoisomerase IIα to cause DNA damage. Therefore, cell-killing effect of the topoisomerase II-inhibiting anticancer drug depends on the amount of intracellular expression of topoisomerase IIα essential for formation of the cleavable complex. Then, the amount of expression of topoisomerase IIα in the cultured cancer cell under the glucose starvation and hypoxia environment that are found in the solid cancer and the effect of the proteasome inhibiting agent to the amount of expression were examined.
The culture condition of cells is same as that described in Example 1 including the M phase synchronous culture method and culture under the glucose starvation condition. Culture under hypoxia condition, that is found in the solid cancer, similar to glucose starvation was carried out using the culture medium (that prepared by adding 5% FBS to RPMI1640 culture medium) under the ordinary condition in a Gaspack 100 anaerobic system (Becton Dickinson made). Culture under the glucose starvation condition and hypoxia condition was carried out for 14 hours .
With the purpose to prepare a whole cell extract solution, cells culture under the above described condition were washed with an ice-cooled PBS twice and then, cells were removed from the culture dish by using a cell scraper (Sumitomo Bakelite made) for collection. Cells collected were precipitated by centrifugation and then, dissolved in an SDS sample buffer to collect as the extract solution from all cells. For reference, the composition of the SDS sample buffer was 10% v/v, glycerol, 5% 2-mercaptoethanol, 2% SDS (sodium lauryl sulfate), and 62.5 mM tris-hydrochloric acid (pH 6.8).
The amount of topoisomerase IIα in the extract solution from all cells was measured by the western blotting method. The extract solution from all cells containing a total protein quantity of 30 µg was put on an SDS polyacrylamide gel (4-20 Multigel: Daiichi Pure Chemicals K.K. made) and subjected to electrophoresis in an electrophoresis buffer (25 mM tris, 192 mM glycine, and 0.1% SDS) in a 40 mA constant current for 1 hour. Subsequently, blotting was carried out in 4°C blotting buffer (25 mM tris, 192 mM glycine, and 20% methanol) in a 50 V constant voltage for 12 hours to transfer a protein separated in the SDS polyacrylamide gel to a nitrocellulose membrane. This nitrocellulose membrane was soaked in a blocking buffer (0.1% Tween 20, 4% skim milk-added PBS) for 1 hour to carry out blocking. The nitrocellulose membrane blocked was soaked in a solution, that was prepared by adding anti-topoisomerase IIα antibody (Cambridge Research Biochemicals Corp. made) of the final concentration 1 µg/ml as the primary antibody to the blocking buffer solution, for 1 hour. The nitrocellulose membrane was washed with the blocking buffer three times (5 minutes once), and then, soaked in the solution, in which a 1/1000 volume of an antimouse antibody (Amersham Pharmacia Biotech made) labeled with horse radish peroxidase as a secondary antibody had been added to the blocking buffer, for 1 hour. The nitrocellulose membrane was washed with the blocking buffer three times (5 minutes once), and then, washed with the PBS, to which 0.1% Tween 20 was added, three times (5 minutes once). The nitrocellulose membrane after completion of antibody reaction and washing was treated with the ECL reagent (Amersham Pharmacia Biotech made) after a handling manual and a topoisomerase IIα-specific signal was detected on an X-OMAT™AR film (Kodakmade). For reference, steps after blotting was carried out in a room temperature. […]
The cell culture condition for both M phase-synchronized culture method and culture under the glucose starvation condition was as described in Example 1. […]

[1] = test system: human colon adenocarcinoma cell HT-29; assay: Sensitivity of cells to anticancer drug by colony formation method (M phase-synchronized cells, with or without proteasome inhibiting agent); format: cell-based; conditions: etoposide 5, 10, and 15 µg/ml, 1 hour, FIG. 1
Method: In the glucose starvation environment found in the solid cancer, the effect of combined use of the proteasome inhibitor in a human colon adenocarcinoma cell HT-29 with the anticancer drug targeting topoisomerase II was tested.
Concerning culture media, for a culture condition in a normal state, RPMI 1640 medium (Nissui Pharmaceutical Co.-made) to which a 5% FBS (fetal bovine serum) was added and for the culture condition in the glucose starvation state symbolically found in the solid cancer, RPMI 1640 medium (Lifetech Oriental-made), lacking glucose, in which the 5% FBS was added were used, respectively. Culture was carried out using a CO2 incubator (Tabai Espec-made) under conditions of 5% CO2/95% air and humidity 100%.
In order to test sensitivity to the anticancer drug, the cell cycle synchronization culture methodwas employed. Nocodazol (Sigma made) was used to synchronize the cell cycle, cells in a logarithmic proliferation phase were treated with 40 ng/ml Nocodazol for 9 hours, and cells accumulated in cell division phase (Mpahse) were collected by gentle pipetting. M phase-synchronized cells collected through these steps were washed with PBS (phosphate buffered saline) followed by inoculation of 1×10^5 cells per well of 12 well-culture plate.
M phase-synchronized cells were cultured under the normal condition and the glucose starvation condition to conduct treatments with the proteasome inhibiting agent and the anticancer drug as follows. For cells under the glucose starvation condition, the culture medium, to which the proteasome inhibiting agent and the protease inhibiting agent not inhibiting proteasome were added as the control group, and the culture medium, to which no inhibiting agent has been added, was used. For cells under the normal condition, the culture medium, to which each inhibiting agent was not added, was used. After inoculation of cells, culture was carried out for 13 hours in each culture medium. […]
Sensitivity of cells to the anticancer drug was measured using the colony formation method. As described above, cells treated with the proteasome inhibiting agent and the anticancer drug were washed with PBS followed by soaking in trypsin (Lifetech Oriental made) solution and removed from a culture dish to suspend in an ordinary culture medium. These cells were inoculated again in 500 to 5000 cells for a 10 cm culture dish and cultured for 10 to 12 days to form a colony. The colony formed was fixed by 10% formaldehyde solution and stainedwith 0.01% crystal violet (Wako Pure Chemicals made) solution. Number of colony was counted and a Cell survival rate was calculated assuming that the number of colonies untreated with the anticancer drug is 1.
For reference, the proteasome inhibiting agent and the protease inhibiting agent not inhibiting proteasome used as described above were as follows. • (1) Proteasome inhibiting agent • . […] MG115 (carbobenzoxy-L-Leucyl-L-Leucyl-L-Norvalinal): final concentration 2.5 µM (Peptide Institute Inc. made) • . MG132 (carbobenzoxy-L-Leucyl-L-Leucyl-Leucinal) : final concentration 2.5 µM (Peptide Institute Inc. made) • . Lactacystin, final concentration 10 µM (Kindly supplied from The Kitasato Institute made) • (2) Protease inhibiting agent not inhibiting proteasome • . E64, final concentration 25 µM (Peptide Institute Inc. made) • . ZLLal (carbobenzoxy-L-Leucyl-L-Leucinal): final concentration 25 µM (Peptide Institute Inc. made)
The cell culture condition for both M phase-synchronized culture method and culture under the glucose starvation condition was as described in Example 1. M phase-synchronized cells were cultured in the culture medium, to which lactacystin of the final concentration 10 µM was added, or the culture medium, to which this was not added, as the proteasome inhibiting agent under the ordinary condition and the glucose starvation condition, respectively, for 13 hours. […]

[2] = test system: human colon cancer cell HT29; assay: Anticancer therapy in human cancer cell-transplanted nude mouse model (size of tumor lump); format: in vivo, nude mouse BALB/cAnNCrj-nu/nu; conditions: Example 5; intraperitoneally three times every 4 days; etoposide 33 mg/kg, lactacystin 40 mg/kg; in combined use lactacystin 5 hours before etoposide; FIG. 11
Source text: A human colon cancer cell HT29 was transplanted subcutaneously to a nude mouse to examine a therapeutic effect of combined use of lactacystin, the proteasome inhibiting agent, with etoposide, the anticancer drug targeting topoisomerase II.
As an experimental animal, the nude mouse BALB/cAnNCrj-nu/nu of 8-week old female (Charles River Laboratories product) was used. In order to form a tumor lump in the nude mouse, 1×10^7 HT29 cells was subcutaneously transplanted. After 8 to 10 days of transplanting, the tumor lump of HT29 cells grew to […] and at this point, the therapy was started. […]
The therapy was conducted by dividing the HT29 tumor-transplanted mice into 4 groups to assign 4 animals to 1 group as follows by administering intraperitoneally three times every 4 days: (1) control group untreated with saline, (2) etoposide 33 mg/kg, (3) lactacystin 40 mg/kg, (4) lactacystin 40 mg/kg and etoposide 33 mg/kg. […] Since start of the therapy, a size of the tumor lump was measured to measure effect of the therapy by administration of drugs once every 4 days. […]
The effect of therapy by simultaneous administration of the proteasome inhibiting agent, lactacystin, and the topoisomerase II-targeting anticancer, doxorubicin was examined. […] After start of treatment, once every 4 to 5 days, the size of the tumor lump was measured to measure the effect of treatment by drug administration.

| Structure (SMILES) | amount of expression of topoisomerase I (topoisomerase I) | amount of expression of topoisomerase IIα (topoisomerase IIα) | Cell survival (colony formation) with etoposide ([1]; glucose starvation condition) | Cell survival (colony formation) with etoposide ([1]; ordinary culture condition) | suppression of tumor proliferation (size of the tumor lump) [2] |
| --- | --- | --- | --- | --- | --- |
| CC(C)[C@H](O)[C@@]12NC(=O)[C@H](C)[C@@H]1OC2=O [activated type of lactacystin, clasto-lactacystin β lactone] | does not change | the lowering of expression is perfectly inhibited |  |  |  |
| COc1cc([C@@H]2c3cc4c(cc3[C@@H](O[C@@H]3O[C@@H]5CO[C@@H](C)O[C@H]5[C@H](O)[C@H]3O)[C@H]3COC(=O)[C@H]23)OCO4)cc(OC)c1O [etoposide] |  |  | cells showed resistance against etoposide to survive | almost all HT29 cells died | less suppression of tumor proliferation |
